From ChEMBL document CHEMBL5316264, “Identification of N- and C-3-Modified Laudanosoline Derivatives as Novel Influenza PAN Endonuclease Inhibitors” (J Med Chem, 2023)

Biological target: Polymerase acidic protein (Influenza A virus (A/Puerto Rico/8/1934(H1N1)), UniProt P03433)
Settings: hek293t

Compound | IC50 [µM]
CCCOC(=O)[C@@H]1Cc2cc(O)c(O)cc2[C@H](Cc2ccc(O)c(O)c2)N1C(=O)c1ccccc1Cl | 10.8
O=C1c2c(O)c(=O)ccn2N([C@@H]2c3ccccc3SCc3c2ccc(F)c3F)[C@@H]2COCCN12 [BALOXAVIR] | 300
